Reference: the NIST ThermoML archive (doi:10.1021/je020130i)
± gives the expanded uncertainty stated by the source.

details: 363.15 K; Liquid

| Structure (SMILES) | vapor or sublimation pressure |
| --- | --- |
| CCCCCC [hexane] | 188.05 ± 2.4 kPa |
| Clc1ccccc1 [chlorobenzene] | 28.33 ± 0.42 kPa |
| CNC=O [N-methylformamide] | 2.1 ± 0.09 kPa [middle of 4 runs] |
| CC#N [acetonitrile] | 131.21 ± 1.7 kPa |
| c1ccccc1 [benzene] | 137.28 ± 1.8 kPa |
